The target in the experiment is T1, Ceramide glucosyltransferase (Homo sapiens, UniProt Q16739).
T1 sequence (Q16739 whole entry): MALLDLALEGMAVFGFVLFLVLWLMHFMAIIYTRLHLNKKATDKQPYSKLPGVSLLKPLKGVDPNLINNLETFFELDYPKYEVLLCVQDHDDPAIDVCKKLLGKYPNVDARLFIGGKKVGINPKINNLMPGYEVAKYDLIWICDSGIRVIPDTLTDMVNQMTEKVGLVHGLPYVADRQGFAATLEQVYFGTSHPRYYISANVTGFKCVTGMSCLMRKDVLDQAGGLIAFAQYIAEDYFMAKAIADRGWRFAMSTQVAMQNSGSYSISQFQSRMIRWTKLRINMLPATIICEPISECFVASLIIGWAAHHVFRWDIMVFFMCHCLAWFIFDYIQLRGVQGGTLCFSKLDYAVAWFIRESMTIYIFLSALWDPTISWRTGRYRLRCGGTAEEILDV
Kind of experiment: Inhibition of GCS in human A-375 cells using C6-ceramide and UDP-glucose as substrate preincubated for 30 mins followed by substrate addition measured after 20 hrs by UDP-Glo glucosylceramide synthase based luminometer analysis. Type of experiment: cell-based.

The text below walks through data of ChEMBL document CHEMBL5131561, “Modified Benzofuran-carboxamide Compounds as Glucosylceramide Synthase Inhibitors for Treating Diseases” (ACS Med Chem Lett, 2022).

The structures appear in SMILES notation.

On to `N#Cc1ccc(Cl)c(-c2cccc3cc(C(=O)N[C@H]4CC[C@@H](O)C4)oc23)c1`, for which the EC50 came out at 0.047 nM.

As usually defined, the EC50 is the concentration that produces a half-maximal response. Read a low EC50 as a more potent agent.
